Measured values: paper PMC11345841, “Exploring 2-Sulfonylpyrimidine Warheads as Acrylamide Surrogates for Targeted Covalent Inhibition: A BTK Story” (Journal of Medicinal Chemistry, 2024)
Read-outs that look alike come from different tables or passages of the source.

How the values were obtained:
TMD8 cells = experiment: RNA-seq gene expression; settings: TMD8, 1 μM, 8 h; for number of genes reduced vs DMSO: FDR < 0.01, log2FC < -0.5; for number of genes increased vs DMSO: FDR < 0.01, log2FC > 0.5
FYN = molecular target: T1, FYN (Homo sapiens, UniProt P06241); experiment: KINOMEscan ScanTK; assay type: binding
T1 construct: purchased Eurofins DiscoverX KINOMEscan (scanTK)
T1 sequence (P06241 whole entry): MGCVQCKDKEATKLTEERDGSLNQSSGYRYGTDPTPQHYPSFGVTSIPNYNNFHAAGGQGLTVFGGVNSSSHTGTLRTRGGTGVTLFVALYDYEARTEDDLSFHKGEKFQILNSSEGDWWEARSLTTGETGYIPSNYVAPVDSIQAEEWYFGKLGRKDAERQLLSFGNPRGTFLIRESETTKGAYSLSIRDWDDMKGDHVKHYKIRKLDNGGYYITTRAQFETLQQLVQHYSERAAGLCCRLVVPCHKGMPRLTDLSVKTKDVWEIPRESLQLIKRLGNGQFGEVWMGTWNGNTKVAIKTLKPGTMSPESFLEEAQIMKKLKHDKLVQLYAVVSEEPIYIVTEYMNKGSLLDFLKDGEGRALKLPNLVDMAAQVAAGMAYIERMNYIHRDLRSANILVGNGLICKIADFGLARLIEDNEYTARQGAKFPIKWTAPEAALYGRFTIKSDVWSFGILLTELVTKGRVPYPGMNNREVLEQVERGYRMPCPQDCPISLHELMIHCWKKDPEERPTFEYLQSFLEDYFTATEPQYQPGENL

EPHB2 = molecular target: T2, EPHB2 (Homo sapiens, UniProt P29323); experiment: KINOMEscan ScanTK; assay type: binding
T2 construct: purchased Eurofins DiscoverX KINOMEscan (scanTK)
T2 sequence (P29323 19-1055): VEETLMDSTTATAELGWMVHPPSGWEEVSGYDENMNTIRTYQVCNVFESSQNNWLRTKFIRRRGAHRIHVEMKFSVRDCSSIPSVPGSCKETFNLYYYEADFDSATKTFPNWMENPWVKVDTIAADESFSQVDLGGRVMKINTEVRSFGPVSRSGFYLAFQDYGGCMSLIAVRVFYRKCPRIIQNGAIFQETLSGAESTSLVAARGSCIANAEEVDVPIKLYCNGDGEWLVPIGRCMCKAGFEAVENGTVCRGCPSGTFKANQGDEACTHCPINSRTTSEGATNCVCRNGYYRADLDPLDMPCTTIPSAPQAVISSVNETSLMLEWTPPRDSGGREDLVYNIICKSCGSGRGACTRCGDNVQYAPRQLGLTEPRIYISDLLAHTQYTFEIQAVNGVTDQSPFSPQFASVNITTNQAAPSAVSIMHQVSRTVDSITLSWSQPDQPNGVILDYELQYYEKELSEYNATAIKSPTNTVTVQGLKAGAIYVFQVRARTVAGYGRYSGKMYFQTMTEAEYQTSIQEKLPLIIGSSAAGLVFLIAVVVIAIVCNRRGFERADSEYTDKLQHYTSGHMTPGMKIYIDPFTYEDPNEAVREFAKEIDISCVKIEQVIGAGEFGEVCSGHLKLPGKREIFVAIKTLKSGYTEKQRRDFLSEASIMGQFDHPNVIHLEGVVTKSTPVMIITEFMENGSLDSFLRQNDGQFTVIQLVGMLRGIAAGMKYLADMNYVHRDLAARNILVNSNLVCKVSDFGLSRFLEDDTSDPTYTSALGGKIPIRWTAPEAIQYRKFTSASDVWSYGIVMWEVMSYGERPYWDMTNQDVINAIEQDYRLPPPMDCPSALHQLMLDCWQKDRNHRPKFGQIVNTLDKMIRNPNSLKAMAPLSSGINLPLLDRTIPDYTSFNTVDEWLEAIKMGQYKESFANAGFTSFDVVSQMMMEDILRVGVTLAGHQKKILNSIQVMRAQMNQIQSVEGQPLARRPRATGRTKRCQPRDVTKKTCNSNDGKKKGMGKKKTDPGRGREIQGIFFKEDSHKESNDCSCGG

ALK = molecular target: T3, ALK (Homo sapiens, UniProt Q9UM73); experiment: KINOMEscan ScanTK; assay type: binding
T3 construct: purchased Eurofins DiscoverX KINOMEscan (scanTK)

KIT(D816V) = molecular target: T4, KIT(D816V) (Homo sapiens, UniProt P10721, D816V); experiment: KINOMEscan ScanTK; assay type: binding
T4 construct: purchased Eurofins DiscoverX KINOMEscan (scanTK)
T4 sequence (P10721 26-976 D816V): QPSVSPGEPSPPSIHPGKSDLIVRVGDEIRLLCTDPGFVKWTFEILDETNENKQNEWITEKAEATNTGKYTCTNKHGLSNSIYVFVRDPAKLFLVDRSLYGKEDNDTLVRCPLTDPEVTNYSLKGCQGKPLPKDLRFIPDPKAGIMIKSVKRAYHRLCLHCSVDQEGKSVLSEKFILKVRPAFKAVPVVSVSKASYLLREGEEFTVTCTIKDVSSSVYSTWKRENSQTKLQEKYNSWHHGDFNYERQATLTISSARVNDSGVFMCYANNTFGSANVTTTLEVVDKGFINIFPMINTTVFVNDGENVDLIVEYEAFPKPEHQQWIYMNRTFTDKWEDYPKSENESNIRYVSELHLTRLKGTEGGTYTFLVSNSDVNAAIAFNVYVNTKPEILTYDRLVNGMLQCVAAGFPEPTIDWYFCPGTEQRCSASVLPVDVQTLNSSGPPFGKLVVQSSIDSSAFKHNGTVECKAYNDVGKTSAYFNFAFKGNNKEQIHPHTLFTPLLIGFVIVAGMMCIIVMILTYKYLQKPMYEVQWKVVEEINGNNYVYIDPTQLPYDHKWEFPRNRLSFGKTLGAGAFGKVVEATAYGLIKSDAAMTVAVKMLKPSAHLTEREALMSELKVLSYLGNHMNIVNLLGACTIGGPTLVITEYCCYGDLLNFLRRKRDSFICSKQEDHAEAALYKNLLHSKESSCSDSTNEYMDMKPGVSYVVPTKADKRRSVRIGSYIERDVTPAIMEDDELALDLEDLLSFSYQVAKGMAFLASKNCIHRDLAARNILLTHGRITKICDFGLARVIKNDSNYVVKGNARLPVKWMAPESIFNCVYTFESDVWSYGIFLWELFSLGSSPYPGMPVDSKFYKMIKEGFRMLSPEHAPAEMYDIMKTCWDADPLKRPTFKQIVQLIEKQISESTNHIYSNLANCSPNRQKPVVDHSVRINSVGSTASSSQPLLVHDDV

PDGFRB = molecular target: T5, PDGFRB (Homo sapiens, UniProt P09619); experiment: KINOMEscan ScanTK; assay type: binding
T5 construct: purchased Eurofins DiscoverX KINOMEscan (scanTK)

VEGFR2 = molecular target: T6, VEGFR2 (Homo sapiens, UniProt P35968); experiment: KINOMEscan ScanTK; assay type: binding
T6 construct: purchased Eurofins DiscoverX KINOMEscan (scanTK)
T6 sequence (P35968 20-1356): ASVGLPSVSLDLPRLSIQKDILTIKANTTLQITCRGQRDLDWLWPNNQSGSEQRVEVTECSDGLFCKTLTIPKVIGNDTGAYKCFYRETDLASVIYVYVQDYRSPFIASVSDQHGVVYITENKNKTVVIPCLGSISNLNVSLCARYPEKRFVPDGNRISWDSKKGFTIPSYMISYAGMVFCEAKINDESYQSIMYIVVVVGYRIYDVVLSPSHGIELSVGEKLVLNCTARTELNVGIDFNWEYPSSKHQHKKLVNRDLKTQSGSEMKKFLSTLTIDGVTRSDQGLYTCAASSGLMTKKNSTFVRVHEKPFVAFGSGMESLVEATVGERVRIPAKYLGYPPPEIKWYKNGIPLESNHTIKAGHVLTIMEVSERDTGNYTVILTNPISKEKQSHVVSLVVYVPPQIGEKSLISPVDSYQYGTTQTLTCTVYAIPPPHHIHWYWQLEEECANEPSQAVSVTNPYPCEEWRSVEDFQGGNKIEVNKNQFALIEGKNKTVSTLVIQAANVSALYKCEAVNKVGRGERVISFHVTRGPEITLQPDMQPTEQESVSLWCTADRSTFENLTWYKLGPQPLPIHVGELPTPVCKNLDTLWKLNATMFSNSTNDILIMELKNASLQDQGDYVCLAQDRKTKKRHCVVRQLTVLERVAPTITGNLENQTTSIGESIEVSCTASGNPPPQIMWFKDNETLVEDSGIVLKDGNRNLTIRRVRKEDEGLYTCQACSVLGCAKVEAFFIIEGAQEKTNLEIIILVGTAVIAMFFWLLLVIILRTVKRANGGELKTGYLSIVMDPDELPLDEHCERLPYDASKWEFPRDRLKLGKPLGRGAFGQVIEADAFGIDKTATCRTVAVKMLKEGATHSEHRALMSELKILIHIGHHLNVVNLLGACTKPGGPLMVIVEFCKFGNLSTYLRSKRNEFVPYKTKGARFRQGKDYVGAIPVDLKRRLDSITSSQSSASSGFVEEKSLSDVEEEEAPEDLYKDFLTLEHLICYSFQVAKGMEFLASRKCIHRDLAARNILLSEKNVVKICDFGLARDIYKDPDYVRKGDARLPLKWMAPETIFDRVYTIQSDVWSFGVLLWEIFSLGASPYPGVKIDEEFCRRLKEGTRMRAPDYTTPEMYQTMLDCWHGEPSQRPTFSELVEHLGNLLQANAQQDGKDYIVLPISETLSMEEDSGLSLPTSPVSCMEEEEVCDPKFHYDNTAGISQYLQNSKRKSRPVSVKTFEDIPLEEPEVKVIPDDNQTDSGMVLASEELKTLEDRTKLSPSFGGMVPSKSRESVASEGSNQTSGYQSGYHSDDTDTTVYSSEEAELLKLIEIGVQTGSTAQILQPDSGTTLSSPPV

BRK = molecular target: T7, BRK (Homo sapiens, UniProt Q13882); experiment: KINOMEscan ScanTK; assay type: binding
T7 construct: purchased Eurofins DiscoverX KINOMEscan (scanTK)
T7 sequence (Q13882 whole entry): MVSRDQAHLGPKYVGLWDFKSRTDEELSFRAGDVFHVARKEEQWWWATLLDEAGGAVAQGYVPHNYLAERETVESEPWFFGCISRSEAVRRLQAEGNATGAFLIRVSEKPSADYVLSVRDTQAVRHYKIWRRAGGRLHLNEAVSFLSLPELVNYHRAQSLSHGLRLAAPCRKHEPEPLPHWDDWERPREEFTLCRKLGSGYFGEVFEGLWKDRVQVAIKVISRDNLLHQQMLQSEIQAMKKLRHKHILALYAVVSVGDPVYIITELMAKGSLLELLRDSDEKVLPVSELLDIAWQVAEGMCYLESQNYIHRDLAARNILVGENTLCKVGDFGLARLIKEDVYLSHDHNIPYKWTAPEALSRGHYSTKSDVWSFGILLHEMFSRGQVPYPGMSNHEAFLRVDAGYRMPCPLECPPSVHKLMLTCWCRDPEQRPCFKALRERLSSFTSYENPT

[1] = molecular target: T8, ABL1(Y253F)-phosphorylated (Homo sapiens, UniProt P00519, Y253F); experiment: KINOMEscan ScanTK; assay type: binding
T8 construct: purchased Eurofins DiscoverX KINOMEscan (scanTK)

[2] = molecular target: T9, ABL1(H396P)-nonphosphorylated (Homo sapiens, UniProt P00519, H396P); experiment: KINOMEscan ScanTK; assay type: binding
T9 construct: purchased Eurofins DiscoverX KINOMEscan (scanTK)

BTK = molecular target: T10, BTK (Homo sapiens, UniProt Q06187); experiment: KINOMEscan ScanTK; assay type: binding; settings: for remaining binding at 1 µM: BTK; for inhibition at 1 µM: ScanTK
T10 construct: purchased Eurofins DiscoverX KINOMEscan (scanTK)
T10 sequence (Q06187 whole entry): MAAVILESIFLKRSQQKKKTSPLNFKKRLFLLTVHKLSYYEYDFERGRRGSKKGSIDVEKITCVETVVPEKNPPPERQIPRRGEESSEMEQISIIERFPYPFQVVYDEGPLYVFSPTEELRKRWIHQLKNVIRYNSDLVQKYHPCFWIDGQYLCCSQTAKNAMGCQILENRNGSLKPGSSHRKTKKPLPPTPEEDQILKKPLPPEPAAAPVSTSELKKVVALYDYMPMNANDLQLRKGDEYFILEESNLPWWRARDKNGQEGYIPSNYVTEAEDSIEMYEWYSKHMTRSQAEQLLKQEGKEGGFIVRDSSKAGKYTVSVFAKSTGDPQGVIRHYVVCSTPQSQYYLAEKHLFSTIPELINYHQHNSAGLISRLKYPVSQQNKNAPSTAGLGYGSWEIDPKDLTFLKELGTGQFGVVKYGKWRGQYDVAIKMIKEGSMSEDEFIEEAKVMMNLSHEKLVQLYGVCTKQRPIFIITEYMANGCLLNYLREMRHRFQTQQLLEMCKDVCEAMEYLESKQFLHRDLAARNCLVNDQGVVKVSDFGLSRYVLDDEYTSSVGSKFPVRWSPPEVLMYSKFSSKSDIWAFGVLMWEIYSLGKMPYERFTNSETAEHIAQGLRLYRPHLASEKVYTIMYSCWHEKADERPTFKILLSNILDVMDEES

TIE2 = molecular target: T11, TIE2 (Homo sapiens, UniProt Q02763); experiment: KINOMEscan ScanTK; assay type: binding
T11 construct: purchased Eurofins DiscoverX KINOMEscan (scanTK)
T11 sequence (Q02763 23-1124): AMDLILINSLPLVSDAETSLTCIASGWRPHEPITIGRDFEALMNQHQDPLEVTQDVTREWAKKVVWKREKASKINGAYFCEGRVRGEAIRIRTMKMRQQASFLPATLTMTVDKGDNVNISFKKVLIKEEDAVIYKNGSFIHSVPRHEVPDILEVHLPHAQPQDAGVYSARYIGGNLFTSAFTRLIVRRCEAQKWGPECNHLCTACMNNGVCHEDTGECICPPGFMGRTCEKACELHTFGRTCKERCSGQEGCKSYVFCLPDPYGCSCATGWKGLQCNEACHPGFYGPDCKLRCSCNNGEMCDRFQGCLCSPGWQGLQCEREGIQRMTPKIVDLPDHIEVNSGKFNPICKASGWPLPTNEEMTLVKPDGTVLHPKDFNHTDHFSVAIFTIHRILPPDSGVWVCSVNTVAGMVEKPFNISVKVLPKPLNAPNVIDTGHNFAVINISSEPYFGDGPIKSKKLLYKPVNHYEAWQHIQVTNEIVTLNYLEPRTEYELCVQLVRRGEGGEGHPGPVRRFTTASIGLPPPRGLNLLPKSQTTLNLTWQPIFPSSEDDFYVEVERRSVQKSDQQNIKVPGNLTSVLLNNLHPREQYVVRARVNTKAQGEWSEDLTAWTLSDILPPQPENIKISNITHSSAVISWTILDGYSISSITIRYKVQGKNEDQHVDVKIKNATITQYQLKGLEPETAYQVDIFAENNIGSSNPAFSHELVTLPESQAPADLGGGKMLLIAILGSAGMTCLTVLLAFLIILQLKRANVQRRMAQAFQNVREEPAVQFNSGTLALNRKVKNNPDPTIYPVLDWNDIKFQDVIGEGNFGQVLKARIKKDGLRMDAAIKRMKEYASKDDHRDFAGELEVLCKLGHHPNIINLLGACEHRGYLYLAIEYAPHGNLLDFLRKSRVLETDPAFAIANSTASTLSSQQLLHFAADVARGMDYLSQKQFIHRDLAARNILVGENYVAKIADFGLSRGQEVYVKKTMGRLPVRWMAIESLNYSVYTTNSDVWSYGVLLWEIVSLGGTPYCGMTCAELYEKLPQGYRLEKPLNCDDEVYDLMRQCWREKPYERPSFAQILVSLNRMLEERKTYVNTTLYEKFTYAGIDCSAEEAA

EGFR(S752-I759del) = molecular target: T12, EGFR(S752-I759del) (Homo sapiens, UniProt P00533, DEL752-759); experiment: KINOMEscan ScanTK; assay type: binding
T12 construct: purchased Eurofins DiscoverX KINOMEscan (scanTK)

[3] = @1000nM, read-out: % difference (compound - Ib %Control)

Structure (SMILES)	number of genes unchanged vs DMSO (TMD8 cells)	number of genes reduced vs DMSO (TMD8 cells)	number of genes increased vs DMSO (TMD8 cells)	remaining binding at 1 µM (FYN; @1000nM, read-out: %Control)	remaining binding at 1 µM (FYN; read-out: %Control @1000nM)	remaining binding at 1 µM (EPHB2; @1000nM, read-out: %Control)	remaining binding at 1 µM (EPHB2; read-out: %Control @1000nM)	remaining binding at 1 µM (ALK; @1000nM, read-out: %Control)	remaining binding at 1 µM (ALK; read-out: %Control @1000nM)	remaining binding at 1 µM (KIT(D816V); @1000nM, read-out: %Control)	remaining binding at 1 µM (KIT(D816V); read-out: %Control @1000nM)	remaining binding at 1 µM (PDGFRB; @1000nM, read-out: %Control)	remaining binding at 1 µM (PDGFRB; read-out: %Control @1000nM)	remaining binding at 1 µM (VEGFR2; @1000nM, read-out: %Control)	remaining binding at 1 µM (VEGFR2; read-out: %Control @1000nM)	remaining binding at 1 µM (BRK; @1000nM, read-out: %Control)	remaining binding at 1 µM (BRK; read-out: %Control @1000nM)	remaining binding at 1 µM ([1]; @1000nM, read-out: %Control)	remaining binding at 1 µM ([1]; read-out: %Control @1000nM)	remaining binding at 1 µM ([2]; @1000nM, read-out: %Control)	other results
C=CC(=O)N1CCC[C@@H](n2nc(-c3ccc(Oc4ccccc4)cc3)c3c(N)ncnc32)C1 [Compound 1g, Ibrutinib, reference compound]	14846 genes	125 genes	76 genes	9.6%	9.6%	100%	100%	94%	94%	86%	86%	25%	25%	71%	71%	1.3%	1.3%	77%	77%	14%	remaining binding at 1 µM ([2]; read-out: %Control @1000nM): 14%
Cc1cnc(S(C)(=O)=O)nc1N1CCCC(n2nc(-c3ccc(Oc4ccccc4)cc3)c3c(N)ncnc32)C1 (stereo not drawn) [Compound 8a, 1-(1-(5-Methyl-2-(methylsulfonyl)pyrimidin-4-yl)piperidin-3-yl)-3-(4-phenoxyphenyl)-1H-pyrazolo[3,4-d]pyrimidin-4-amine]	14761 genes	189 genes	97 genes	17%	17%	84%	84%	80%	80%	74%	74%	27%	27%	90%	90%	15%	15%	83%	83%	61%	difference in % of control versus compound Ib at 1 µM (FYN; @1000nM): 7.4%; %Control difference from compound Ib at 1 µM (EPHB2; @1000nM): -16%; remaining binding at 1 µM (BTK; [3]): 0.1%; remaining binding at 1 µM (BTK; @1000nM, read-out: %Control): 0.1%; remaining binding at 1 µM (BTK; read-out: %Control @1000nM): 0.1%; inhibition at 1 µM (BTK): > 99%; difference in %Control versus compound Ib at 1 µM (ALK; @1000nM): -14%; difference in %Control relative to compound Ib at 1 µM (BRK; @1000nM): 13.7%; remaining binding at 1 µM (TIE2; @1000nM, read-out: %Control): 91%; remaining binding at 1 µM (TIE2; read-out: %Control @1000nM): 91%; difference in %Control from compound Ib at 1 µM ([1]; @1000nM): 6%; difference in %Control versus compound Ib at 1 µM (EGFR(S752-I759del); @1000nM): 98%; remaining binding at 1 µM (EGFR(S752-I759del); @1000nM, read-out: %Control): 100%; remaining binding at 1 µM (EGFR(S752-I759del); read-out: %Control @1000nM): 100%; difference in %Control versus compound Ib at 1 µM ([2]; @1000nM): 47%; remaining binding at 1 µM ([2]; read-out: %Control @1000nM): 61%
COC(=O)c1cnc(S(C)(=O)=O)nc1N1CCCC(n2nc(-c3ccc(Oc4ccccc4)cc3)c3c(N)ncnc32)C1 (stereo not drawn) [Compound 8b, Methyl 4-(3-(4-Amino-3-(4-phenoxyphenyl)-1H-pyrazolo[3,4-d]pyrimidin-1-yl)piperidin-1-yl)-2-(methylsulfonyl)pyrimidine-5-carboxylate]	15031 genes	15 genes	1 genes	26%	26%	91%	91%	100%	100%	85%	85%	68%	68%	90%	90%	42%	42%	78%	78%	69%	difference in % of control versus compound Ib at 1 µM (FYN; @1000nM): 16.4%; %Control difference from compound Ib at 1 µM (EPHB2; @1000nM): -9%; remaining binding at 1 µM (BTK; [3]): 0.75%; remaining binding at 1 µM (BTK; @1000nM, read-out: %Control): 0.75%; remaining binding at 1 µM (BTK; read-out: %Control @1000nM): 0.75%; inhibition at 1 µM (BTK): > 99%; difference in %Control versus compound Ib at 1 µM (ALK; @1000nM): 6%; difference in %Control relative to compound Ib at 1 µM (BRK; @1000nM): 40.7%; remaining binding at 1 µM (TIE2; @1000nM, read-out: %Control): 72%; remaining binding at 1 µM (TIE2; read-out: %Control @1000nM): 72%; difference in %Control from compound Ib at 1 µM ([1]; @1000nM): 1%; difference in %Control versus compound Ib at 1 µM (EGFR(S752-I759del); @1000nM): 80%; remaining binding at 1 µM (EGFR(S752-I759del); @1000nM, read-out: %Control): 82%; remaining binding at 1 µM (EGFR(S752-I759del); read-out: %Control @1000nM): 82%; difference in %Control versus compound Ib at 1 µM ([2]; @1000nM): 55%; remaining binding at 1 µM ([2]; read-out: %Control @1000nM): 69%
